SMILES strings stand for the structures.

The target of this assay is T1, Recombinant human KIF18A (1-467 His-tagged) protein (Homo sapiens, UniProt Q8NI77).
T1 construct: Recombinant human KIF18A (1-467 His-tagged) protein; His; made in house
T1 sequence (Q8NI77 1-467): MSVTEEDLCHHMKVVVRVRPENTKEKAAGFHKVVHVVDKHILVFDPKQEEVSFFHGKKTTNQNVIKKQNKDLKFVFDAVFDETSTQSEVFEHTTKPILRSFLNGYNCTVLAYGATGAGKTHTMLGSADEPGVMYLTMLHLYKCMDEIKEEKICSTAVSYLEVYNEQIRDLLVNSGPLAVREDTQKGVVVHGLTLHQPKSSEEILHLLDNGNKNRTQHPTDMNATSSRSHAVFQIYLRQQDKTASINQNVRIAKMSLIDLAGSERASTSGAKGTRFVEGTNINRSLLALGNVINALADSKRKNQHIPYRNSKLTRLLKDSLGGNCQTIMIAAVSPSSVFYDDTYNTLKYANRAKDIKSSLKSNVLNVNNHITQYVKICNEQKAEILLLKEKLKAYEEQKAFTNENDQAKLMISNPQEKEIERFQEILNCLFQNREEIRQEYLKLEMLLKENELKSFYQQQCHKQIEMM
T1 sequence (P02550 whole entry partner): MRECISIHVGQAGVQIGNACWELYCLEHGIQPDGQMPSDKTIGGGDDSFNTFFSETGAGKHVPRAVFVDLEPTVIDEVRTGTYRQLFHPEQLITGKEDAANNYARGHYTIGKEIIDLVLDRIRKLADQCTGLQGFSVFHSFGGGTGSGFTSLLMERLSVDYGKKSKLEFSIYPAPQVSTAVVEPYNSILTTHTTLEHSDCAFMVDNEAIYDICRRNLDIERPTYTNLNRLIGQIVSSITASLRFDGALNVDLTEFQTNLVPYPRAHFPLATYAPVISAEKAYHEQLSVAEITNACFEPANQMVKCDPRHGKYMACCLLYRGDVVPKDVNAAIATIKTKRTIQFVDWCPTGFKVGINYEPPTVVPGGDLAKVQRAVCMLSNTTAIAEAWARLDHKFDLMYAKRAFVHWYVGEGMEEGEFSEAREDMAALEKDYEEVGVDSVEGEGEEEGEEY
T1 sequence (P02554 whole entry partner): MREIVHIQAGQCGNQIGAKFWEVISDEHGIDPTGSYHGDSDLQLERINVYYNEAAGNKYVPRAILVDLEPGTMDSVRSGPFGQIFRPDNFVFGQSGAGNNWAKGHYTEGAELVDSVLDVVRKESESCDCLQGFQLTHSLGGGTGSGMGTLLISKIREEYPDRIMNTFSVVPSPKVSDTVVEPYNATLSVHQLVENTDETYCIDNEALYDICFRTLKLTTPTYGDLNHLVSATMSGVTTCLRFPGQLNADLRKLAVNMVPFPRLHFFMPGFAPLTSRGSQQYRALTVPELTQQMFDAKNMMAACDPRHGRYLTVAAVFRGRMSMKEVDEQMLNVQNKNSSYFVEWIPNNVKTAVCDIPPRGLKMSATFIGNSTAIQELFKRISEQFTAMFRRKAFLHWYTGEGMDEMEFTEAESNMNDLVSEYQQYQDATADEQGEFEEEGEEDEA
Kind of assay: KIF18A Enzyme Assay: microtubule-stimulated ATPase activity (ADP-Glo). It counts as biochemical. Conditions: 30 nM KIF18A, 75 μM ATP. From the text:
KIF18A Enzyme Assay: Microtubule-stimulated ATPase activity assay is used to measure KIF18A enzyme activity after treatment with compound. Compounds were 2-fold serially diluted in DMSO (Sigma Inc) over 22-point concentration range. Recombinant human KIF18A (1-467 His-tagged) protein was expressed using a baculovirus system and purified by affinity chromatography by Amgen Inc. Concentrations of KIF18A protein, microtubules (MT), and ATP in the reaction were optimized for standardized homogenous enzyme assay using ADP-Glorm Kinase/ATPase Assay Kit (Promega Inc). The assay measures ADP formed from the ATPase reaction. […] Read luminescence using EnVision microplate reader with ultra-luminescence module (Perkin Elmer Inc). Concentration-response curve-fitting and IC50 determination was performed using Genedata Screener Software (Standard 15.0.1, Genedata Inc) with a four-parameter logistic regression fit model.
Table A provides data for compounds exemplified in the present application and priority document thereof, as representative compounds of the present invention, as follows: chemical name (as named by either ACD software or ChemDraw (Professional 15.0)) and biological data (IC50 in μM). Ex. # refers to Example No.
Usually IC50 stands for the concentration needed to halve the response being measured. For the compound `CC(C)(CO)Nc1ccc(C(=O)Nc2cccc(N3CCCC3)c2)c(N2CCC3(CC2)CC3)n1` [Example 105-26, 6-((1-hydroxy-2-methylpropan-2-yl)amino)-N-(3-(pyrrolidin-1-yl)phenyl)-2-(6-azaspiro[2.5]octan-6-yl)nicotinamide], the IC50 stood at 234 nM.
As for `O=C(Nc1cccc(S(=O)(=O)N2CCC(F)(F)CC2)c1)c1cccnc1N1CCC2(CC1)CC2` [Example 100-7, N-(3-((4,4-difluoropiperidin-1-yl)sulfonyl)phenyl)-2-(6-azaspiro[2.5]octan-6-yl)nicotinamide], the figure is 104 nM.
As for `Cc1ccc(NC(=O)c2cccnc2N2CCC3(CC2)CC3)cc1S(=O)(=O)N1CCCCC1` [Example 100-10, N-(4-methyl-3-(piperidin-1-ylsulfonyl)phenyl)-2-(6-azaspiro[2.5]octan-6-yl)nicotinamide], the IC50 is 211 nM.
Take `Cc1ccc(NC(=O)c2ccc(NC(C)(CO)CO)nc2N2CCC3(CC2)CC3)cc1S(=O)(=O)C1CCCC1` [Example 106-4, N-(3-(cyclopentylsulfonyl)-4-methylphenyl)-6-((1,3-dihydroxy-2-methylpropan-2-yl)amino)-2-(6-azaspiro[2.5]octan-6-yl)nicotinamide]: the IC50 was determined as 40 nM.
In the case of `Cc1ccc(NC(=O)c2cccnc2N2CCC(C)(C)CC2)cc1S(=O)(=O)N1CCCCC1` [Example 100-9, 2-(4,4-dimethylpiperidin-1-yl)-N-(4-methyl-3-(piperidin-1-ylsulfonyl)phenyl)nicotinamide], the IC50 was 282 nM.
With `O=C(Nc1ccc(Cl)c(C(=O)N2CCCC(F)(F)C2)c1)c1ccncc1N1CCC2(CC1)CC2` [Example 115-2, N-(4-chloro-3-(3,3-difluoropiperidine-1-carbonyl)phenyl)-3-(6-azaspiro[2.5]octan-6-yl)isonicotinamide], the IC50 was 735 nM.
`CC(C)(C)NS(=O)(=O)c1cccc(NC(=O)c2ccc(NC3(C)COC3)nc2N2CCC3(CC2)CC3)c1` [Example 102-26, N-(3-(N-(tert-butyl)sulfamoyl)phenyl)-6-((3-methyloxetan-3-yl)amino)-2-(6-azaspiro[2.5]octan-6-yl)nicotinamide]: the IC50 was 56 nM.
With `CC(C)(C)NS(=O)(=O)c1cccc(NC(=O)c2cccnc2N2CCC3(CC2)CC3)c1` [Example 100-12, N-(3-(N-(tert-butyl)sulfamoyl)phenyl)-2-(6-azaspiro[2.5]octan-6-yl)nicotinamide], the IC50 worked out at 175 nM.
With `CC(C)(CO)Nc1ccc(C(=O)Nc2cccc(N3CCOCC3)c2)c(N2CCC3(CC2)CC3)n1` [Example 105-27, 6-((1-hydroxy-2-methylpropan-2-yl)amino)-N-(3-morpholinophenyl)-2-(6-azaspiro[2.5]octan-6-yl)nicotinamide], the IC50 stood at 262 nM.
Take `CC(C)(C)NS(=O)(=O)c1cccc(NC(=O)c2ccc(N[C@H]3CCC[C@H]3O)nc2N2CCC3(CC2)CC3)c1` [Example 102-19, N-(3-(N-(tert-butyl)sulfamoyl)phenyl)-6-(((1S,2R)-2-hydroxycyclopentyl)amino)-2-(6-azaspiro[2.5]octan-6-yl)nicotinamide]: the IC50 came to 160 nM.
`CC(C)(CO)Nc1ccc(C(=O)Nc2cccc(S(=O)(=O)NC3(C)CCC3)c2)c(N2CCC3(CC2)CC3)n1` [Example 105-13, 6-((1-hydroxy-2-methylpropan-2-yl)amino)-N-(3-(N-(1-methylcyclobutyl)sulfamoyl)phenyl)-2-(6-azaspiro[2.5]octan-6-yl)nicotinamide]: the IC50 turned out to be 56 nM.
As for `O=C(Nc1cccc(S(=O)(=O)N2CCC(F)CC2)c1)c1cccnc1N1CCC2(CC1)CC2` [Example 100-8, N-(3-((4-fluoropiperidin-1-yl)sulfonyl)phenyl)-2-(6-azaspiro[2.5]octan-6-yl)nicotinamide], the figure is 259 nM; as for `CC(C)(C)NS(=O)(=O)c1cccc(NC(=O)c2ccc(NC3CC(F)(F)C3)nc2N2CCC3(CC2)CC3)c1` [Example 102-17, N-(3-(N-(tert-butyl)sulfamoyl)phenyl)-6-((3,3-difluorocyclobutyl)amino)-2-(6-azaspiro[2.5]octan-6-yl)nicotinamide], 294 nM.
As for `CC(C)(C)NS(=O)(=O)c1cccc(NC(=O)c2ccc(NCc3ccccc3)nc2N2CCC3(CC2)CC3)c1` [Example 102-31, 6-(benzylamino)-N-(3-(N-(tert-butyl)sulfamoyl)phenyl)-2-(6-azaspiro[2.5]octan-6-yl)nicotinamide], the figure is 317 nM.
Regarding `O=C(Nc1cccc(S(=O)(=O)C2CCCC2)c1)c1ccc(N2CCC2)nc1N1CCC2(CCC2)CC1` [Example 103-26, 6-(azctidin-1-yl)-N-(3-(cyclopentylsulfonyl)phenyl)-2-(7-azaspiro[3.5]nonan-7-yl)nicotinamide], the IC50 amounted to 141 nM.
As to `Cc1ccc(NC(=O)c2ccc(NC(C)(C)CO)nc2N2CCC3(CC2)CC3)cc1-c1ccncc1` [Example 111-12, 6-((1-hydroxy-2-methylpropan-2-yl)amino)-N-(4-methyl-3-(pyridin-4-yl)phenyl)-2-(6-azaspiro[2.5]octan-6-yl)nicotinamide], the IC50 is 386 nM.
Take `O=C(Nc1cccc(S(=O)(=O)C2CCCC2)c1)c1ccc(NC2(CO)CC2)nc1N1CCC2(CC1)CC2` [Example 103-4, N-(3-(cyclopentylsulfonyl)phenyl)-6-((1-(hydroxymethyl)cyclopropyl)amino)-2-(6-azaspiro[2.5]octan-6-yl)nicotinamide]: the half-maximal inhibitory concentration (IC50) came to 39 nM.
Take `CC(C)(C)NS(=O)(=O)c1cccc(NC(=O)c2ccc(NCCCO)nc2N2CCC3(CC2)CC3)c1` [Example 102-30, N-(3-(N-(tert-butyl)sulfamoyl)phenyl)-6-((3-hydroxypropyl)amino)-2-(6-azaspiro[2.5]octan-6-yl)nicotinamide]: the IC50 came out at 81 nM.
For `O=C(Nc1cccc(S(=O)(=O)C2CCCC2)c1)c1ccc(NC2(CO)CC2)nc1N1CCC2(CCC2)CC1` [Example 103-25, N-(3-(cyclopentylsulfonyl)phenyl)-6-((1-(hydroxymethyl)cyclopropyl)amino)-2-(7-azaspiro[3.5]nonan-7-yl)nicotinamide], the half-maximal inhibitory concentration (IC50) turned out to be 38 nM.
On to `CC(C)(C)NS(=O)(=O)c1cccc(NC(=O)c2ccc(NC3COC3)nc2N2CCC3(CC2)CC3)c1` [Example 102-25, N-(3-(N-(tert-butyl)sulfamoyl)phenyl)-6-(oxctan-3-ylamino)-2-(6-azaspiro[2.5]octan-6-yl)nicotinamide], for which the IC50 was found to be 84 nM.
The same measure for `O=C(Nc1cccc(S(=O)(=O)C2CCCC2)c1F)c1cccnc1N1CCC2(CC1)CC2` [Example 100-21, N-(3-(cyclopentylsulfonyl)-2-fluorophenyl)-2-(6-azaspiro[2.5]octan-6-yl)nicotinamide]: 760 nM; for `CC(C)(CO)Nc1ccc(C(=O)Nc2cccc(S(=O)(=O)NC3CC3)c2)c(N2CCC3(CC2)CC3)n1` [Example 105-14, N-(3-(N-cyclopropylsulfamoyl)phenyl)-6-((1-hydroxy-2-methylpropan-2-yl)amino)-2-(6-azaspiro[2.5]octan-6-yl)nicotinamide]: 33 nM; for `O=C(Nc1cccc(S(=O)(=O)C2CCCC2)c1)c1ccc(N[C@@H]2CCOC2)nc1N1CCC2(CC1)CC2` [Example 103-15, (R)-N-(3-(cyclopentylsulfonyl)phenyl)-2-(6-azaspiro[2.5]octan-6-yl)-6-((tetrahydrofuran-3-yl)amino)nicotinamide]: 51 nM.
The same measure for `C[C@@H](CO)Nc1ccc(C(=O)Nc2cccc(S(=O)(=O)C3CCCC3)c2)c(N2CCC3(CC2)CC3)n1` [Example 103-9, (S)-N-(3-(cyclopentylsulfonyl)phenyl)-6-((1-hydroxypropan-2-yl)amino)-2-(6-azaspiro[2.5]octan-6-yl)nicotinamide]: 42 nM; for `CC(C)(CF)NS(=O)(=O)c1cccc(NC(=O)c2cccnc2N2CCC3(CC2)CC3)c1` [Example 101-8, N-(3-(N-(1-fluoro-2-methylpropan-2-yl)sulfamoyl)phenyl)-2-(6-azaspiro[2.5]octan-6-yl)nicotinamide]: 279 nM.
As for `CC(C)(CO)Nc1ccc(C(=O)Nc2cccc(S(=O)(=O)C(C)(C)C)c2)c(N2CCC3(CC2)CC3)n1` [Example 105-2, N-(3-(tert-butylsulfonyl)phenyl)-6-((1-hydroxy-2-methylpropan-2-yl)amino)-2-(6-azaspiro[2.5]octan-6-yl)nicotinamide], the figure is 80 nM; as for `CCC1CCN(c2ncccc2C(=O)Nc2cccc(S(=O)(=O)N3CCCCC3)c2)CC1` [Example 100-2, 2-(4-ethylpiperidin-1-yl)-N-(3-(piperidin-1-ylsulfonyl)phenyl)nicotinamide], 983 nM.
In the case of `O=C(Nc1cccc(S(=O)(=O)NC2CC2)c1)c1ccc(NC2(CO)CC2)nc1N1CCC2(CC1)CC2` [Example 105-15, N-(3-(N-cyclopropylsulfamoyl)phenyl)-6-((1-(hydroxymethyl)cyclopropyl)amino)-2-(6-azaspiro[2.5]octan-6-yl)nicotinamide], the IC50 stood at 800 nM.
As for `O=C(Nc1ccc(Br)c(C(=O)N2CCCC(F)(F)C2)c1)c1ccncc1N1CCC2(CC1)CC2` [Example 115-1, N-(4-bromo-3-(3,3-difluoropiperidine-1-carbonyl)phenyl)-3-(6-azaspiro[2.5]octan-6-yl)isonicotinamide], the figure is 577 nM.

The values above are taken from patent US12540129B2, “KIF18A inhibitors” (AMGEN INC., priority 2019, dated 2026).
